Converted amounts (≈) assume the structure as drawn. The source made the active and inactive calls. The rule behind the calls is not given here.

Assay [1] relates to L1210. Description: The compound was tested in vivo for life prolongation against mouse L1210 tumor cells at 40 mg/kg concentration; Inactive. Further details: dose 40 mg/kg. Type of assay: functional, organism-based.
Another assay concerns KB cells (Homo sapiens). In words: The cytotoxic activity in vitro by 9KB assay method. As to conditions: read-out: ED50 (the source's name).
Assay [2] is filed under the species Mus musculus. In words: (§1) The cytotoxic activity was in vitro tested by 9PS assay method. Format: functional. As to conditions: read-out: ED50 (the source's name).
Assay [3] concerns Nucleic Acid. In words: The compound was tested for inhibitory activity against DNA relaxation by DNA topoisomerase I at dose 10-30 uM; Inactive. Format: functional.
Assay [4] has as its system P388. In words: The compound was tested in vivo for life prolongation against mouse P388 tumor cells at 40 mg/kg concentration; No toxicity. Format: functional, organism-based. Also on record: dose 40 mg/kg.
Assay [5] concerns L1210. In words: The compound was tested in vivo for life prolongation against mouse L1210 tumor cells at 4 mg/kg concentration. Format: functional.
The subject of assay [6] is Nucleic Acid. Description: The compound was tested for inhibitory activity against DNA relaxation by DNA topoisomerase I at dose 10 uM. Format: functional.
The test system of assay [7] is P388. Description: The compound was tested in vivo for life prolongation against mouse P388 tumor cells at 4 mg/kg concentration. Format: functional.
Assay [8] has as its system Nucleic Acid. Description: The compound was tested for inhibitory activity against DNA relaxation by DNA topoisomerase I at dose 30 uM. Format: functional.
The subject of assay [9] is P388. Description: The compound was tested in vivo for life prolongation against mouse P388 tumor cells at 8 mg/kg concentration. Type of assay: functional.
The nature of assay [10]: as §1. Type of assay: functional. As to conditions: Mus musculus; read-out: ED50 (the source's name).
The subject of assay [11] is Nucleic Acid. Description: The compound was tested for inhibitory activity against DNA relaxation by DNA topoisomerase I at dose 100 uM. Type of assay: functional.
Assay [12] concerns L1210. In words: The compound was tested in vivo for life prolongation against mouse L1210 tumor cells at 30 mg/kg concentration; Inactive. Format: functional, organism-based. Further details: dose 30 mg/kg.
Assay [13] has as its system L1210 (Mus musculus). Description: The compound was tested in vivo for life prolongation against mouse L1210 tumor cells at 30 mg/kg concentration; Nontoxic.
Assay [14] can be described thus: The cytotoxic activity was in vitro tested by 9PS assay method. Type of assay: functional. Conditions: Mus musculus; read-out: ED50 (the source's name).
For assay [15], the species on record is Mus musculus. In words: The cytotoxic activity in vitro by 9KB assay method. Type of assay: functional. As to conditions: read-out: ED50 (the source's name).
In assay [16] the test system is L1210. Description: The compound was tested in vivo for life prolongation against mouse L1210 tumor cells at 80 mg/kg concentration; Inactive. Also on record: dose 80 mg/kg. Format: functional, organism-based.
For assay [17], the system named is L1210 (Mus musculus). Description: The compound was tested in vivo for life prolongation against mouse L1210 tumor cells at 80 mg/kg concentration; No toxicity.

Broadly, the inhibition is the relative decrease from the control value, in per cent. Take `CCC1(N)C(=O)OCc2c1cc1n(c2=O)Cc2cc3ccccc3nc2-1.Cl` (centres undefined): in the assay on L1210 [1], the “T/C x100” value was “inactive”. Also, the values for the EC50 in the assay with KB cells (Homo sapiens) and in the assay filed under Mus musculus [2] were 1.6 µg/mL and 3.4 µg/mL, respectively. The inhibition result with Nucleic Acid [3] is “inactive”. Moreover, in the assay with P388 [4], the “T/C x100” value is “No toxicity”.
As to `CC[C@@]1(O)C(=O)OCc2c1cc1n(c2=O)Cc2cc3ccccc3nc2-1` [CAMPTOTHECIN], the T/C x100 was 200% in the assay on L1210 [5] and 199% with P388 [7]. The figures for the inhibition in the assay on Nucleic Acid [6] and in the assay with Nucleic Acid [8] were 76% and 85%, respectively. Also, the EC50 with KB cells (Homo sapiens) was 0.02 µg/mL (≈ 0.0574 µM); in the assay listed under Mus musculus [2] it was 0.08 µg/mL (≈ 0.23 µM).
As to `CCC1(O)C(=O)OCc2c1cc1n(c2=O)Cc2cc3ccccc3nc2-1` (centres undefined), the inhibition came out at 39% in the assay on Nucleic Acid [6], 70% in the assay on Nucleic Acid [11] and 48% in the assay with Nucleic Acid [8]. In addition, the EC50 is 0.03 µg/mL (≈ 0.0861 µM) with KB cells (Homo sapiens) and 0.04 µg/mL (≈ 0.115 µM) in assay [10]. The compound also returned a T/C x100 in the assay on P388 [9] of 220%.
Regarding `CCC1(N=[N+]=[N-])C(=O)OCc2c1cc1n(c2=O)Cc2cc3ccccc3nc2-1` (centres undefined), the EC50 in the assay on KB cells (Homo sapiens) and in the assay filed under Mus musculus [2] was over 10 µg/mL throughout. Also, in the assay on L1210 [12], the “T/C x100” value was “inactive”. The “T/C x100” value with L1210 (Mus musculus) [13] is “Non-toxic”. For the same compound, the inhibition entry with Nucleic Acid [3] is “inactive”.
Turning to `CCC1(O)C(=O)OCc2c1ccc1c2-c2nc3ccccc3cc2C1` (centres undefined), the EC50 in the assay with KB cells (Homo sapiens) and in the assay listed under Mus musculus [2] was over 10 µg/mL each time. This compound also came in with an inhibition in the assay with Nucleic Acid [8] of 0%.
In the case of `CCC1(O)C(=O)OCc2cc3c(cc21)-c1nc2ccccc2cc1C3` (centres undefined), the EC50 amounted to 2.5 µg/mL (≈ 7.54 µM) in assay [14] and 1.3 µg/mL (≈ 3.92 µM) in the assay listed under Mus musculus [15]. For the same compound, the inhibition came to 38% with Nucleic Acid [11] and 6% with Nucleic Acid [8].
Consider `CC[C@@]1(O)C(=O)NCc2c1cc1n(c2=O)Cc2cc3ccccc3nc2-1`, for which the “T/C x100” value in the assay with L1210 [16] is “inactive”. The “T/C x100” value in the assay with L1210 (Mus musculus) [17] is “No toxicity”. Moreover, the EC50 in the assay with KB cells (Homo sapiens) is over 10 µg/mL; in the assay filed under Mus musculus [2], 3 µg/mL (≈ 8.64 µM). The inhibition result with Nucleic Acid [3] was “inactive”.

(Values after ChEMBL document CHEMBL1124729, “Plant antitumor agents. 29. Synthesis and biological activity of ring D and ring E modified analogues of camptothecin” (1990).)
